The target of experiment [1] is T1, full-length human PPARγ (isoform 2) (Homo sapiens, UniProt P37231).
T1 construct: full-length human PPARγ (isoform 2) expression plasmid; expressed in transfected cells; host or cells: HEK293T (ATCC #CRL-11268)
T1 sequence (P37231 1-505): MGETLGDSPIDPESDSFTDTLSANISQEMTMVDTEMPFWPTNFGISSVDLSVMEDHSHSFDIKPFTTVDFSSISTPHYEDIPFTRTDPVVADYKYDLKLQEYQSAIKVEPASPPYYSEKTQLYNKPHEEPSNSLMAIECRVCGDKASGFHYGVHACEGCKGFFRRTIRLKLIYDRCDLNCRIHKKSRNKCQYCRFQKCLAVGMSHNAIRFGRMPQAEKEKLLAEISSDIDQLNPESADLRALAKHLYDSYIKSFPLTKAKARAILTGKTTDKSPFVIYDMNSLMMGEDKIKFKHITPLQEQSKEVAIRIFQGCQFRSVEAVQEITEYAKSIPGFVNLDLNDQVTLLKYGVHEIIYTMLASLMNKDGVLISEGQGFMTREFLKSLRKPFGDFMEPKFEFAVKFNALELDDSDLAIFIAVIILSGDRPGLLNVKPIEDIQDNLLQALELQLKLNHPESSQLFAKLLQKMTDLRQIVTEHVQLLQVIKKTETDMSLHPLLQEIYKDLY
As to the kind of experiment: Transcriptional reporter assay (3xPPRE-luciferase) in HEK293T cells transfected with full-length PPARγ. In kind it is cell-based. As to conditions: for IC50: full-length PPARγ + 3xPPRE-luciferase, 18 h treatment, n = 4, three-parameter fit, read-out: cellular IC50 (decrease in PPARγ-mediated transcription). As to the method:
1 Pharmacological PPARγ ligand set used in this study. (A) Chemical structures and pharmacological properties of the ligands. […] (B) Transcriptional reporter assay performed in HEK293T cells transfected with a full-length PPARγ expression plasmid and a 3xPPRE-luciferase reporter plasmid. Data were normalized to cells treated with DMSO control, represented as mean ± s.d.
After an 18 h incubation, cells were transferred to white 384-well cell culture plates (Thermo Fisher Scientific) at 10,000 cells/well in 20 μL total volume/well. After a 4 h incubation, cells were treated in quadruplicate with 20 μL of either vehicle control (1.5% DMSO in DMEM) or a 3-fold serial dilution of ligands (1 μM highest ligand concentration). After a final 18 h incubation, cells were harvested with 20 μL of Britelite Plus (PerkinElmer), and luminescence was measured on a BioTek Synergy Neo multimode plate reader. Data were plotted in GraphPad Prism as luminescence vs ligand concentration as mean ± s.d. (n = 4) and fit to a three-parameter sigmoidal dose–response curve equation.
(In a reporter assay the amount or activity of a reporter protein is the signal.)

The target of experiment [2] is T2, PPARγ LBD / NCoR1 corepressor peptide (Homo sapiens, UniProt P37231).
T2 construct: residues 203–477 (isoform 1 numbering) with a TEV-cleavable N-terminal hexa-his-tag; made in house; host or cells: Escherichia coli BL21(DE3), pET46 plasmid
T2 sequence (P37231 203-477 isoform P37231-2): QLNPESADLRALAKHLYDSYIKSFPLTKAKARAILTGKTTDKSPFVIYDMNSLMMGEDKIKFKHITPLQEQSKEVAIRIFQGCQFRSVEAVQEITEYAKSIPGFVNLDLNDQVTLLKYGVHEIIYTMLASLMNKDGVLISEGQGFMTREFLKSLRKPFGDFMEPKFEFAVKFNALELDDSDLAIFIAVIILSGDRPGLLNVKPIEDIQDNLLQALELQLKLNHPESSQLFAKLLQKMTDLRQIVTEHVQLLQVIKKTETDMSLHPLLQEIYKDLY
Description: TR-FRET coregulator interaction assay, NCoR1 corepressor peptide. Type of experiment: biochemical. The settings on record: for EC50: 4 nM 6xHis-PPARγ LBD, 400 nM FITC-NCoR1 peptide, 1 h at 25 °C, n = 3, read-out: NCoR1 TR-FRET EC50 (increase in NCoR1 peptide interaction). The source says:
(§1) We next characterized the ligand set using biochemical assays that report on ligand-dependent changes in the interaction between PPARγ LBD and FITC-labeled peptides derived from NR coregulator proteins that contribute to PPARγ-mediated transcription in cells, including the TRAP220/MED1 coactivator and NCoR1 corepressor. We used time-resolved fluorescence resonance energy transfer (TR-FRET) assays to determine relative ligand potency (or covalent reactivity) and efficacy (via increased or decreased TR-FRET ratio values). […] We performed fluorescence polarization (FP) assays to directly measure binding affinities between the PPARγ LBD and coregulator peptides.
(§2) 2 Biochemical coregulator profiling data. Time-resolved fluorescence resonance energy transfer (TR-FRET) coregulator interaction assay performed with (A) the NCoR1 corepressor peptide or (B) the TRAP220/MED1 coactivator peptide in the presence of the indicated ligands. Data represent mean ± s.e.m. […] Fluorescence polarization (FP) binding assay performed with (C) NCoR1 corepressor peptide or (D) TRAP220/MED1 coactivator peptide in the presence of the indicated ligands. Data represent mean ± s.e.m. […] (E) Pairwise correlation plots between PPARγ-mediated transcription (y-axis) and biochemical coregulator profiling data (x-axis). Spearman correlation coefficients (r p) and associated two-tailed p values are listed.
(§3) Time-resolved fluorescence resonance energy transfer (TR-FRET) coregulator peptide interaction assays were performed in low-volume black 384-well plates (Greiner) using a 23 μL final well volume. Each well contained 4 nM protein (WT or mutant 6xHis-PPARγ LBD), 1 nM LanthaScreen Elite Tb-anti-His Antibody (ThermoFisher #PV5895), and 400 nM FITC-labeled TRAP220/MED1 and NCoR1 peptide in a buffer containing 20 mM potassium phosphate (pH 7.4), 50 mM KCl, 5 mM TCEP, and 0.005% Tween 20. Ligand stocks were prepared via serial dilution in DMSO, added to wells in triplicate (10 μM highest final ligand concentration), and plates were read using BioTek Synergy Neo multimode plate reader after incubation for 1 h at 25 °C.

The target in experiment [3] is T3, PPARγ LBD / TRAP220/MED1 coactivator peptide (Homo sapiens, UniProt P37231).
T3 construct: residues 203–477 (isoform 1 numbering) with a TEV-cleavable N-terminal hexa-his-tag; made in house; host or cells: Escherichia coli BL21(DE3), pET46 plasmid
T3 sequence (P37231 203-477 isoform P37231-2): T2 sequence (P37231 203-477 isoform P37231-2)
As to the kind of experiment: TR-FRET coregulator interaction assay, TRAP220/MED1 coactivator peptide. Type of experiment: biochemical. The settings on record: for IC50: 4 nM 6xHis-PPARγ LBD, 400 nM FITC-TRAP220/MED1 peptide, 1 h at 25 °C, n = 3, read-out: MED1 TR-FRET IC50 (decrease in TRAP220/MED1 peptide interaction).
Source text: as §1, §2, §3
(In TR-FRET formats the signal depends on donor and acceptor labels being close together.)

SMILES strings stand for the structures.

Turning to `CS(=O)(=O)c1ccc(C#N)cc1-c1cc(=O)c2c(F)cc(F)cc2[nH]1` [FX-909, 3-(5,7-difluoro-4-oxo-1,4-dihydroquinolin-2-yl)-4-(methylsulfonyl)benzonitrile], the figures for the IC50 in experiment [1] and in experiment [3] were 1.31 nM and 16 nM, respectively. Also, the EC50 – broadly, the midpoint of the concentration-response curve – in experiment [2] is 33 nM.
For the molecule `O=C(Nc1ccccc1)c1cc([N+](=O)[O-])ccc1Cl` [GW9662], the “effect on PPARγ-mediated transcription (in words)” value in experiment [1] (3xPPRE-luciferase reporter) is listed as “no change in activity”. Besides, in experiment [2], the EC50 turned out to be 17 nM. Moreover, the “effect on NCoR1 corepressor peptide interaction, TR-FRET efficacy (in words)” value in experiment [2] (TR-FRET ratio) is “relatively little change in efficacy”. For the same molecule, the “effect on TRAP220/MED1 coactivator peptide interaction, TR-FRET efficacy (in words)” value in experiment [3] (TR-FRET ratio) is recorded as “relatively little change in efficacy”.
Turning to `N#Cc1ccc(NC(=O)c2cc([N+](=O)[O-])ccc2Cl)cn1` [SR33068], the IC50 is 1.58 nM in experiment [1] and 5 nM in experiment [3]. In experiment [2], the EC50 is 17 nM.

The record behind these values is PMC12406200, “Structural Basis of PPARγ-Mediated Transcriptional Repression by the Covalent Inverse Agonist FX-909” (Journal of Medicinal Chemistry, 2025).
